In patent US7402576B2, “Phosphinic acid analogs of glutamate” (Givaudan SA, priority 2002, dated 2008):

Experiments:
[1] = molecular target: T1, enzyme of Corynebacterium striatum Ax 20 (SEQ ID No. 1) (Corynebacterium striatum, UniProt Q8GGD4); experiment: Enzyme inhibition, cellular extract, Nα-lauroyl-L-glutamine cleavage, fluorescamine readout; format: biochemical, Corynebacterium striatum Ax 20 (DSM 14267); conditions: substrate Nα-lauroyl-L-glutamine 50 μM, 10 min preincubation at 37° C., 15 min incubation, pH 7
T1 construct: endogenous in cells; host or cells: Corynebacterium striatum Ax 20 (DSM 14267), wild-type cell extract
Protocol: Cellular Extracts of Corynebacterium striatum Ax 20 (DSM 14267) are prepared by mechanical disruption and subsequent centrifugation.
The extract (50 μl ml corresponding to 0.2 ml initial cell culture) is added to 50 μl of Buffer A (Phosphate Buffer, pH 7). Various concentrations of the compounds of the present invention are added in a volume of 40 μl, and after 10 min preincubation at 37° C., the reaction is and amended with 10 μl of substrate (Nα-lauroyl-L-glutamine, final concentration 50 μM). The samples are incubated for 15 min and then the reaction is stopped by adding 75 μl of Fluorescamine (2.5 mM dissolved in Acetonitrile). The fluorescence resulting from derivatization of the released glutamine with fluorescamine is determined at an excitation wavelength of 381 nm and an emission wavelength of 470 nm.
By comparing the samples containing compounds of the present invention with control samples with enzyme and substrate only, the inhibition (%) is calculated. Alternatively, the same assay is made with a recombinantly formed enzyme produced with a strain containing an expression vector comprising a nucleic acid sequence encoding for the enzyme.

Corynebacterium Ax20 = experiment: Inhibition of the enzymatic activity in living cells, release of lauric acid by GC; format: cell-based, Corynebacterium striatum Ax 20; conditions: 0.2 μM compound, stationary phase living cells, substrate Nα-lauroyl-L-glutamine 1 mM, 1 h
Protocol: The uptake of the compounds in bacterial cells and the inhibition of the enzyme contained therein may be measured using an assay based on stationary-phase living cells. Thus, cells may be incubated along with inhibitory compound or compounds, and the substrate (i.e. the material found in sweat, which when cleaved by the enzyme forms the malodorous acids), and the release of acids may be measured at various inhibitor concentrations. By comparing IC50 values obtained with the living cells with the IC50 values obtained with the isolated enzyme, the ease of penetration of the compounds into the bacterial cells can be assessed.
In order to evaluate enzyme activity in intact cells, stationary phase living cells of Ax20 are harvested and resuspended in Buffer A to an optical density at 600 nm of 0.25. Inhibitory compounds are added at various concentrations, and after a preincubation of 15 min, the substrate (Nα-lauroyl-L-glutamine, 1 mM final concentration) is added. The samples are incubated for 1 h and then extracted with MTBE and HCl and analysed for released lauric acid using capillary GC. By comparing the samples containing compounds of the present invention with control samples with bacteria and substrate only, the inhibition (%) is calculated. By comparing the inhibitory capacity of the compounds on the isolated enzyme with the values obtained using intact cells, the relative uptake of the compounds by the cells can be assessed. From Table 2 it appears, that compounds of the present invention can cross the bacterial cell wall and cytoplasmatic membrane, and thus can have inhibitory activity in living cells.

T1 sequence (Q8GGD4 2-400): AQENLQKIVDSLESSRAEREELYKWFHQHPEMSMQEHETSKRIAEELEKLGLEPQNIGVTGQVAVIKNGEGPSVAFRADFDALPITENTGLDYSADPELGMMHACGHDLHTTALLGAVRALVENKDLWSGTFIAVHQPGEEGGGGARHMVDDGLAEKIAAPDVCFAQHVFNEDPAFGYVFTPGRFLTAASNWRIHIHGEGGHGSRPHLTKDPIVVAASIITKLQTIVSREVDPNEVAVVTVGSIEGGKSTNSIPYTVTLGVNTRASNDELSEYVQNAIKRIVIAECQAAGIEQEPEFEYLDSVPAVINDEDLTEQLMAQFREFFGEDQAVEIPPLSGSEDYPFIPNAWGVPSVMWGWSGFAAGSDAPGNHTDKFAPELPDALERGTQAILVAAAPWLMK

| Compound | IC50 [1] [µM] | % inhibition of release of fatty acids by Corynebacterium Ax20 at a concentration of 0.2 μM (Corynebacterium Ax20) [%] |
| --- | --- | --- |
| 4-Carbamoyl-2-[hydroxy-(4-phenyl-butyl)-phosphinoylmethyl]-butyric acid [Compound 5x] | 0.04 | – |
| CC(CCc1ccccc1)CCP(=O)(O)CC(CCC(N)=O)C(=O)O (stereo not drawn) [Compound 5c, 4-Carbamoyl-2-[hydroxy-(3-methyl-5-phenyl-pentyl)-phosphinoylmethyl]-butyric acid] | 0.0115 | 70.5 |
| CCCCCCCCP(=O)(O)CC(CCC(N)=O)C(=O)O (stereo not drawn) [Compound 5y, 4-Carbamoyl-2-(hydroxy-octyl-phosphinoylmethyl)-butyric acid] | 0.0179 | 64.9 |
| 4-Carbamoyl-2-[hydroxy-(4-isopropyl-cyclohex-1-enylmethyl)-phosphinoylmethyl]-butyric acid [Compound 5z] | 0.032 | – |
| CC(C)CCCC(C)CCP(=O)(O)CC(CCC(N)=O)C(=O)O (stereo not drawn) [Compound 5n, 4-Carbamoyl-2-[(3,7-dimethyl-octyl)-hydroxy-phosphinoylmethyl]-butyric acid] | 0.009 | 69.5 |
| 4-Carbamoyl-2-(hydroxy-naphthalen-2-ylmethyl-phosphinoylmethyl)-butyric acid [Compound 5g] | 0.138 | – |
| CCCCCCCCCCP(=O)(O)CC(CCC(N)=O)C(=O)O (stereo not drawn) [Compound 5a, 4-Carbamoyl-2-(decyl-hydroxy-phosphinoylmethyl)-butyric acid] | 0.0303 | 60.9 |
| 4-Carbamoyl-2-[hydroxy-(3-phenyl-propyl)-phosphinoylmethyl]-butyric acid [Compound 5t] | 0.125 | – |
